According to US10980765B2, “Isothiocyanatostilbenes as a novel method and product for treating cancer” (BOARD OF SUPERVISORS OF LOUISIANA STATE UNIVERSITY AND …, priority 2015, dated 2021):

Columns and labels:
c-Met [1] = target: T1, c-Met (Homo sapiens, UniProt P08581); experiment: Western blot of pMet in c-Met amplified H1993 lung cancer cells without HGF; format: cell-based; set-up: endogenous in cells; conditions: 5 μM compound; no HGF, constitutive c-Met activation
Experimental: (§1) Western blot was used to analyze pMet expression. […] Western blot was used to analyze the indicated proteins.
H1993 cells have c-Met amplification such that they have high levels of pMet, even in the absence of HGF, due to constitutive c-Met dimerization and autophosphorylation.
(§2) Western blot analysis: Cells were grown to ˜70% confluency prior to treatment. Cells were serum-starved in serum-free media for 30 minutes prior to treatment in complete media or serum-free media for the indicated times. Cell lysates were collected in Laemmli (125 mM Tris, 4% SDS, 0.01% bromophenol blue, 30% sucrose) containing 0.5% β-mercaptoethanol and boiled ˜8 minutes. Primary antibodies include: phospho-c-Met (Y1234/1235), phospho-Akt (S473), pEGFR […], pIGF-IRβ (Y1135/1136) (Cell Signaling Technology; Beverly, Mass.); α-actin (Sigma-Aldrich), c-Met (C-28) (Life Technologies). Secondary antibodies include: horseradish peroxidase-conjugated anti-rabbit and anti-mouse (GE Healthcare; Pittsburgh, Pa.). ECL 2 was used for chemiluminescent detection (Thermo Scientific; Rockford, Ill.). Densitometry was calculated using ImageJ (NIH).

Akt = experiment: Western blot of downstream Akt (phospho-Akt) in HGF-treated DU145 cells; format: cell-based; conditions: ˜8 μM compound, 33 ng/ml HGF 20 min, serum-free
Experimental: as §2

[2] = test system: protein translocation across the ER membrane; conditions: cited from earlier work
IGFR = target: T2, IGFR (Homo sapiens, UniProt P08069); experiment: Western blot of IGFR activation by IGF in DU145 cells; format: cell-based; conditions: 4 μM DIDS or 25 μM H2DIDS; DU145, 100 ng/ml IGF 20 min
T2 construct: endogenous in cells; host or cells: DU145
T2 sequence (P08069 31-1367): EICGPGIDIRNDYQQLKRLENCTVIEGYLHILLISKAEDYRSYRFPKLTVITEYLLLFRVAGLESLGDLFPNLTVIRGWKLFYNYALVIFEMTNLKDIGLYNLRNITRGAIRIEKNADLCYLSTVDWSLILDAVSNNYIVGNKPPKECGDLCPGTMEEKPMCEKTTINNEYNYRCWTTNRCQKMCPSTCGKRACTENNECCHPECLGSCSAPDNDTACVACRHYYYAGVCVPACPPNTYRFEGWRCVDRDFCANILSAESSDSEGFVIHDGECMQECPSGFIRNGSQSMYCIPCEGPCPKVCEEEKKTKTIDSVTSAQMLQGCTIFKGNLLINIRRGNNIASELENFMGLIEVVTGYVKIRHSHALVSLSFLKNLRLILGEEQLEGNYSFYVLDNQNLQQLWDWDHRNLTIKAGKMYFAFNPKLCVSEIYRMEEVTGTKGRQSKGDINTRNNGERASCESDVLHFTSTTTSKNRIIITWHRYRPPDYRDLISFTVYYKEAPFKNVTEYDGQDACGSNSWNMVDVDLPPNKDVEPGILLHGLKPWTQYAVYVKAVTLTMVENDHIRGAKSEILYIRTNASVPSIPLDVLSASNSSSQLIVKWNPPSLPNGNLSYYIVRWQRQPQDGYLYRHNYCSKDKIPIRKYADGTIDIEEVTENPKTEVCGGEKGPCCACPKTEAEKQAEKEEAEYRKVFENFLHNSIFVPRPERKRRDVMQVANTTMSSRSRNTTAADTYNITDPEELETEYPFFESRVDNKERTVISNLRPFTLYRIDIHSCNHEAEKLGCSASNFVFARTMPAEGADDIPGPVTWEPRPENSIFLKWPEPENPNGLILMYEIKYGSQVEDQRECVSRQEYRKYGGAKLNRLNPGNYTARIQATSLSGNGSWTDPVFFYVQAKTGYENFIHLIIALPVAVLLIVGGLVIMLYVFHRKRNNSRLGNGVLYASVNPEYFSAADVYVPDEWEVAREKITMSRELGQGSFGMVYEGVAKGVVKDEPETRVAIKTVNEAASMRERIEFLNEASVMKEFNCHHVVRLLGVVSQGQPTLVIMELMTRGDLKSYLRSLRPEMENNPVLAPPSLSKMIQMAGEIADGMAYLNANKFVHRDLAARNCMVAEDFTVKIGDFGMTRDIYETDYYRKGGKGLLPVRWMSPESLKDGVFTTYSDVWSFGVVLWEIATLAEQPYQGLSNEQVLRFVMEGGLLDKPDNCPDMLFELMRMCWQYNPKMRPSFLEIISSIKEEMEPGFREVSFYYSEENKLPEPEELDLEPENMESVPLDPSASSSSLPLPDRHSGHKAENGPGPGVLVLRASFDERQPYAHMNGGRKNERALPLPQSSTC
Experimental: as §2

Cells = experiment: 2D proliferation (Cell Titer Blue); format: cell-based; conditions: 24-72 hours
Experimental: A TO timepoint was also measured. For each timepoint, cells were exposed to Cell Titer Blue reagent (Promega) for 1 hour at 37° C. 5% CO2. Experiments were performed with quadruplicate replicates. Fluorescence was measured using a BioTek Synergy 4 plate reader with Gen5 software.

[3] = test system: interaction of human immunodeficiency virus type-1 (HIV-1) with CD4 T-cell receptors; conditions: cited from earlier work
DU145 spheroids = experiment: 3D spheroid proliferation; format: cell-based; conditions: 33 ng/mL HGF, Matrigel, 72 hours
Experimental: Data are shown as the percent change in growth from T=0 to T=72 hours. For each of the six independent variables in each bar graph, a representative image at the 72 hour time point is shown. The six corresponding images below each respective bar graph
3D spheroid proliferation: Prior to seeding, cells were incubated with 2.5 ng/μl CellTracker Red (Life Technologies) in complete DMEM lacking Phenol Red for 5 minutes at room temperature then centrifuged at 1000 RPM for 5 minutes. […] The mixture of cells, treatments, and Matrigel in complete media was seeded at 2000 cells/well in a 96 well plate. The plate was centrifuged at 1000 RPM for 3 minutes to collect the cells into the bottom of the plate. Spheroid growth was imaged for up to 80 hours and analyzed for average red object area using the IncuCyte™ ZOOM software. Data are shown as percent change in spheroid growth between TO and […] with HGF normalized to 100% change in growth. Images were captured by the IncuCyte™ ZOOM imaging system and representative 10× images are shown.

[4] = Xenograft study, tolerability (body weight, clinical observation); format: in vivo, Athymic nude mice
From the text: (§3) Data are shown as average+S.E.M., *p<0.05.
(§4) Xenograft studies: All animal experiments were approved by the Institutional Animal Care and Use Committee, University of Louisiana at Monroe, and were handled in strict accordance with good animal practice as defined by the NIH guidelines. Athymic nude mice (Foxn1^nu/Foxn1^+, 4-5 weeks, female) were purchased from Harlan (Indianapolis, Ind.). The mice had free access to standard pellet food and water. The animals were acclimated to animal house facility conditions at a temperature of 18-25° C., with a relative humidity of 55 to 65% and a 12 h light/dark cycle, for one week prior to the experiments. MDA-MB-231/GFP human breast cancer cells were cultured and resuspended in serum-free DMEM medium (20 μl). After anesthesia, cell suspensions (1×10^6 cells/20 μl) were inoculated subcutaneously into the second mammary gland fat pad just beneath the nipple of each animal to generate orthotopic breast tumors. […] The mice were monitored by measuring tumor volume, body weight, and clinical observation. Tumor volume (V) was calculated by V=L/2×W^2, where L was the length and W was the width of tumors. The results are presented as average ±S.E.M. Differences among various treatment groups were determined by the analysis of variance (ANOVA) followed by Dunnett's test using PASW statistics version 18. […]

DU145 cells = experiment: Invasion through Matrigel; format: cell-based; conditions: indicated concentrations; 33 ng/mL HGF; Matrigel 1:5
Experimental: For invasion (FIGS. 4C and 4D), wounded cells were overlaid with Matrigel diluted 1:5 in serum-free media; n=3.
Wound healing and invasion: DU145 cells were grown to ˜100% confluency prior to wounding with the IncuCyte™ WoundMaker™ (Essen Bioscience; Ann Arbor, Mich.) and washed once with complete media. For invasion, cells were covered with Matrigel diluted 1:5 in serum-free RPMI following wounding. […] Images were taken every 4 hours with the IncuCyte™ ZOOM imaging system (Essen Bioscience). Quadruplicate replicates were used in each experiment. Data are presented as percent wound density ±standard error of the mean (S.E.M.).

[5] = test system: MDA-MB-231/GFP human breast cancer cells; experiment: Xenograft study, orthotopic breast tumor growth; format: in vivo, Athymic nude mice; conditions: 5 mg/kg then 10 mg/kg i.p.
From the text: as §3, §4

c-Met [6] = target: T1, c-Met; experiment: Western blot of c-Met activation (phospho-c-Met) by HGF in cancer cell lines; format: cell-based; set-up: endogenous in cells; host or cells: DU145, PC3, MDA-MB-231, HCC1806
Experimental: as §1
(§5) Western blot was used to analyze the indicated proteins.
as §5, §2

T1 sequence (P08581 25-1390): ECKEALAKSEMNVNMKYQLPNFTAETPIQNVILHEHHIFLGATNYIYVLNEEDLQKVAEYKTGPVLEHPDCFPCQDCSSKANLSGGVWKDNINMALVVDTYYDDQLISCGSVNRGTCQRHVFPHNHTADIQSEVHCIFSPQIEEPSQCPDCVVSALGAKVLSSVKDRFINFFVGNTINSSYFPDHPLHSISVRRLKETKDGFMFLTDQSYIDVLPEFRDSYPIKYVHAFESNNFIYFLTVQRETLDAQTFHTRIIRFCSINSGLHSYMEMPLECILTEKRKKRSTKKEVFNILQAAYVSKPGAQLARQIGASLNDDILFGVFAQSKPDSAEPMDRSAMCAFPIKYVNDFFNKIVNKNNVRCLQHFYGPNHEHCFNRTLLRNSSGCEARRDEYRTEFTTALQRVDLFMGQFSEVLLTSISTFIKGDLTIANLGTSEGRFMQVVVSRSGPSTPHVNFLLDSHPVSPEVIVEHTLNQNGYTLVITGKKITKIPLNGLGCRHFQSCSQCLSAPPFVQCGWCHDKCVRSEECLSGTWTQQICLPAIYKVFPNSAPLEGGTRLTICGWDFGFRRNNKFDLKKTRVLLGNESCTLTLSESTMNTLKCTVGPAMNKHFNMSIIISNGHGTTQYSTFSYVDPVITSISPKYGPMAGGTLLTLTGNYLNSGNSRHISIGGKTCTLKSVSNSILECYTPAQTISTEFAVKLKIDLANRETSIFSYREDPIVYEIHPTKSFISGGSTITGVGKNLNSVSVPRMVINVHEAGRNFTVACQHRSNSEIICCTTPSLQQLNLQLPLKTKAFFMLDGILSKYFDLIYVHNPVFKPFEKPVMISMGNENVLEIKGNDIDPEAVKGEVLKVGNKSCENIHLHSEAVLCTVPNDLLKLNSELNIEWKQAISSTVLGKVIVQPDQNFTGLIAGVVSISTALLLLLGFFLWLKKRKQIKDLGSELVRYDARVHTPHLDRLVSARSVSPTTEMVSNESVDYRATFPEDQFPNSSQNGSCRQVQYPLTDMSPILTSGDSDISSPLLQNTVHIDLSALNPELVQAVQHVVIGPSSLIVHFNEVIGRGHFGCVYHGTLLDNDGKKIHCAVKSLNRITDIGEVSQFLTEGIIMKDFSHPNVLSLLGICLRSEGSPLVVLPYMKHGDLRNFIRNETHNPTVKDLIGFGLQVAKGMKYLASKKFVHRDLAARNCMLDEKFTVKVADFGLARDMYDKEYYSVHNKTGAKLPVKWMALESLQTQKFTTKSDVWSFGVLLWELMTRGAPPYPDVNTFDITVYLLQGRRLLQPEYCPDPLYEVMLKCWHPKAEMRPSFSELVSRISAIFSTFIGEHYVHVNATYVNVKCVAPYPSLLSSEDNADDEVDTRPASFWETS

SMILES: O=S(=O)(O)c1cc(N=C=S)ccc1C=Cc1ccc(N=C=S)cc1S(=O)(=O)O [DIDS, 4,4′-Diisothiocyanatostilbene-2,2′-disulfonic acid]
- pMet levels in H1993 cells (c-Met [1]): much less significant effects
- reduction of downstream Akt (Akt): ~90%
- concentration inhibiting protein translocation across the ER membrane [2]: ≥ 400 µM
- IGFR activation (IGFR): do not significantly reduce
- proliferation in complete media in 2D assay (Cells; complete media): minimal effects
- serum-free proliferation in 2D assay (Cells; serum-free media): minimal effects
- concentration preventing interaction of HIV-1 with CD4 T-cell receptors [3]: low micromolar concentrations
- lowest concentration with some inhibitory effects on HGF-induced spheroid growth (DU145 spheroids): 40 nM
- decrease of HGF-induced DU145 spheroid growth (DU145 spheroids; 5 μM compound): ~60%
- signs of toxicity ([4]; 5 mg/kg intraperitoneally, ˜2 weeks, mice): No obvious signs of toxicity
- body weight compared to DMSO control ([4]; 5 mg/kg then 10 mg/kg i.p., 3×/week): no change in body weight
- HGF-induced invasion through Matrigel (DU145 cells): inhibited HGF-induced invasion through Matrigel in a dose-dependent manner
- tumor size (caliper) ([5]; 3×/week): began to reduce tumor size towards the end of the experiment
- overall tumor weight at necropsy ([5]; end of experiment, *p<0.05): Differences in overall tumor weight were evident
- reduction of c-Met activation (c-Met [6]; 8 μM compound, DU145 cells, 33 ng/ml HGF 20 min, serum-free, Western blot densitometry): ~90%
- pMet levels, compound given post HGF treatment (c-Met [6]; DU145, 33 ng/ml HGF 20 min, wash, then 4 μM DIDS 20 or 60 minutes): reduced pMet levels
- reversibility of c-Met inhibition after wash (c-Met [6]; DU145, 4 μM DIDS 20 min, one wash, recovery from 20 minutes up to 1 hour, then 33 ng/ml HGF): does not irreversibly bind c-Met
- effective concentrations for reducing c-Met activation in 10% FBS (c-Met [6]; DU145 cells, 33 ng/ml HGF 20 min, 10% FBS RPMI, compared with serum-free): slightly higher effective concentrations
- c-Met inhibitory effective doses (c-Met [6]; multiple cancer cell lines (summary)): low micromolar range
